Two compounds from ChEMBL document CHEMBL1687787, “Emergence and Distribution of Plasmids Bearing the blaOXA-51-like gene with an upstream ISAba1 in carbapenem-resistant Acinetobacter baumannii isolates in Taiwan” (2010) can be followed below.

In brackets after ≈: the same amount, converted by molar mass. Activity calls are given as the source filed them. No cut-off for these calls is given here.

Assay [1] concerns Acinetobacter baumannii. As to the kind of experiment: Antimicrobial activity against Acinetobacter baumannii clinical isolate harboring chromosomally encoded ISAba1-blaOXA-51-like gene with fxsA upstream sequence by agar dilution method in presence of Tazobactam. It counts as functional, organism-based.
Assay [2] relates to Acinetobacter baumannii. As to the kind of experiment: Antimicrobial activity against Acinetobacter baumannii clinical isolate harboring plasmid encoded ISAba1-blaOXA-51-like gene with nuc upstream sequence by agar dilution method in presence of Tazobactam. It counts as functional, organism-based. For orientation: In agar dilution the substance is mixed into plates at graded concentrations.

The test system of assay [3] is Acinetobacter baumannii. As to the kind of experiment: Antimicrobial activity against Acinetobacter baumannii ATCC 15151 transformed with shuttle vector carrying beta-lactamase OXA-82 by agar dilution method. It counts as functional.
For assay [4], the system named is Acinetobacter baumannii. As to the kind of experiment: Antimicrobial activity against Acinetobacter baumannii F-type isolate by agar dilution method. It counts as functional.
The test system of assay [5] is Acinetobacter baumannii. Description: Antimicrobial activity against Acinetobacter baumannii ATCC 15151 by agar dilution method. It counts as functional.
In assay [6] the test system is Acinetobacter baumannii. As to the kind of experiment: Antimicrobial activity against Acinetobacter baumannii F-type isolate transformed with plasmid harboring ISAba1-blaOXA-82 by agar dilution method.
Assay [7] concerns Acinetobacter baumannii. Description: Antimicrobial activity against Acinetobacter baumannii ATCC 15151 transformed with plasmid harboring ISAba1-blaOXA-82 by agar dilution method. It counts as functional.

With `CCN1CCN(C(=O)N[C@@H](C(=O)N[C@@H]2C(=O)N3[C@@H]2SC(C)(C)[C@@H]3C(=O)O)c2ccccc2)C(=O)C1=O`, the outcome in assay [1] and in assay [2] was inactive.

With `C[C@@H](O)[C@H]1C(=O)N2C(C(=O)O)=C(SCCNC=N)C[C@H]12` [IMIPENEM ANHYDROUS], the MIC in assay [3] worked out at 2 µg/mL (≈ 6.68 µM); in assay [4], 4 µg/mL (≈ 13.4 µM); in assay [5], 0.5 µg/mL (≈ 1.67 µM); in assay [6], 64 µg/mL (≈ 214 µM); in assay [7] it was 32 µg/mL (≈ 107 µM).

A word on the MIC: it is the least concentration at which growth counts as inhibited.
